# Results reported in patent US6222035A, “[1,2,4] triazolo [1,5-C] pyrimidine derivatives” (Kyowa Hakko Kogyo Co., Ltd., priority 1997, dated 2001).
# Tested on: learned helplessness model in rats
# Test: Activity in Learned Helplessness (LH) Model
# Type: in vivo, rat (male SD)
# Details: 5.0 mg/kg po, electric shock (IES) loaded, Average % ± SE
# Protocol: Activity in Learned Helplessness (LH) Model
# As experimental animals, 10 to 15 animals per group of SD male rats (220 to 320 g in body weight, 7 week age, Charles River Japan, Atsugi) were used. During the preliminary feeding period, they were allowed to have feed (CRF-1, Oriental Yeast, Tokyo) and water (tap water) freely in an animal room at a room temperature of 22 to 24° C. and a humidity of 50 to 60%. The test compound was orally administered in a dose of 2 ml/kg and 1 hour before FR 1 (fixed ratio schedule 1: repetition of fixed trial conditions) on the second day of the test.
# 2) Preparation of Learned Helplessness Model
# A shuttle box apparatus (TK-401S; manufactured by UNICOM, Chiba) was used as the learning test apparatus. […]
# On the second day, a shuttle box test was carried out by slightly modifying the method of Maier et al. [J. Comp. […] The escape reaction was judged success when both of the two escape times in FR 2 were less than 10 seconds, and the escape response was calculated by the following formula: "the number of trials of successful escape/15×100=escape response (%)" Further, migration in the box other than the escape reaction observed during a period between trials (resting time) was used as an index of psychomotor stimulant action by calculating "total number of migration in the box/15×100=intertrial response (%)" […]
smiles,measurement,setting,value
"Nc1nc(N2CCN(C(=O)c3ccccc3)CC2)cc2nc(-c3ccco3)nn12 [Compound 45, 5-Amino-7-(4-benzoylpiperazinyl)-2-(2-furyl)[1,2,4]triazolo[1,5-c]pyrimidine]",Intertrial response,,6.7 ± 3.8%
same,Escape response,**: p < 0.01 vs loaded control,64 ± 9.8%
